Measurements as given in patent publication US9480679B2, “Methods for treating malaria, tuberculosis and MAC diseases” (priority 2009, dated 2016).
≈ marks a conversion by molar mass, not a printed value. Where two headings read alike, the source gives them in different places.

Tests used:
M. avium complex = experiment: Broth dilution MIC versus M. avium complex isolates; assay type: cell-based, Mycobacterium avium; settings: Mycobacterium avium, read-out: MIC
P. berghei = experiment: Murine P. berghei model, oral 1x or 4x 100 mg/kg; assay type: in vivo; settings: for Parasitized RBC in one drop of blood (made by microscope): individual animals
Experimental: EXAMPLE. CEM-101 activity in infected mice.
EXAMPLE. CEM-101 was tested in the murine P. berghei model as described by Vennerstrom et al. Nature 430(7002):900-904 (2004), the disclosure of which is incorporated herein by reference.

P. berghei blood stages = experiment: Blood stage treatment of P. berghei-infected mice, 3 day PO or SC dosing; assay type: in vivo; settings: blood stage infections

Question: `CC[C@H]1OC(=O)[C@@](C)(F)C(=O)[C@H](C)[C@@H](O[C@@H]2O[C@H](C)C[C@H](N(C)C)[C@H]2O)[C@](C)(OC)C[C@@H](C)C(=O)[C@H](C)[C@H]2N(CCCCn3cc(-c4cccc(N)c4)nn3)C(=O)O[C@]12C` [CEM-101, solithromycin] was tested. Which MIC (M. avium complex; isolate MAC 101, clarithromycin susceptible) did it give?
Answer: Its MIC is 0.25 µg/mL (≈ 0.296 µM).

Question: What about the MIC (M. avium complex; isolate MAC 103, clarithromycin resistant) of the same compound?
Answer: The MIC was 8 µg/mL (≈ 9.47 µM).

Question: What about the MIC (M. avium complex; isolate MAC 108, clarithromycin resistant) of the same compound?
Answer: Its MIC is 8 µg/mL (≈ 9.47 µM).

Question: What about the MIC (M. avium complex; isolate MAC 110, clarithromycin resistant) of the same compound?
Answer: The MIC was 8 µg/mL (≈ 9.47 µM).

Question: What about the MIC (M. avium complex; isolate MAC 216, clarithromycin resistant) of the same compound?
Answer: Its MIC is 8 µg/mL (≈ 9.47 µM).

Question: What about the MIC (M. avium complex; isolate MAC 224, clarithromycin resistant) of the same compound?
Answer: Its MIC is 8 µg/mL (≈ 9.47 µM).

Question: What about the MIC (M. avium complex; isolate MAC 309, clarithromycin resistant) of the same compound?
Answer: Its MIC is 8 µg/mL (≈ 9.47 µM).

Question: What about the MIC (M. avium complex; isolate MAC 320, clarithromycin resistant) of the same compound?
Answer: The MIC was 8 µg/mL (≈ 9.47 µM).

Question: What about the MIC (M. avium complex; isolate MAC 621, clarithromycin resistant) of the same compound?
Answer: Its MIC is 16 µg/mL (≈ 18.9 µM).

Question: What about the MIC (M. avium complex; isolate MAC 623, clarithromycin resistant) of the same compound?
Answer: Its MIC is 16 µg/mL (≈ 18.9 µM).

Question: And the MIC (M. avium complex; isolate MAC 625, clarithromycin resistant)?
Answer: The MIC was 8 µg/mL (≈ 9.47 µM).

Question: What about the MIC (M. avium complex; isolate MAC 643, clarithromycin resistant) of the same compound?
Answer: Its MIC is 8 µg/mL (≈ 9.47 µM).

Question: And the MIC (M. avium complex; isolate MAC 1408, clarithromycin susceptible)?
Answer: Its MIC is 0.25 µg/mL (≈ 0.296 µM).

Question: And the MIC (M. avium complex; isolate MAC 3404.4, clarithromycin susceptible)?
Answer: Its MIC is 0.125 µg/mL (≈ 0.148 µM).

Question: And the MIC (M. avium complex; isolate MAC 9141, clarithromycin susceptible)?
Answer: The MIC was 1 µg/mL (≈ 1.18 µM).

Question: And the MIC (M. avium complex; isolate MAC FAR, clarithromycin susceptible)?
Answer: Its MIC is 0.125 µg/mL (≈ 0.148 µM).

Question: What about the MIC (M. avium complex; isolate MAC GRL, clarithromycin susceptible) of the same compound?
Answer: Its MIC is 8 µg/mL (≈ 9.47 µM).

Question: And the MIC (M. avium complex; isolate MAC KAL, clarithromycin susceptible)?
Answer: Its MIC is 16 µg/mL (≈ 18.9 µM).

Question: And the MIC (M. avium complex; isolate MAC KZL, clarithromycin susceptible)?
Answer: Its MIC is 8 µg/mL (≈ 9.47 µM).

Question: What about the MIC (M. avium complex; isolate MAC LPR (control strain)) of the same compound?
Answer: Its MIC is 8 µg/mL (≈ 9.47 µM).

Question: What about the MIC (M. avium complex; isolate MAC Pry, clarithromycin resistant) of the same compound?
Answer: The MIC was 8 µg/mL (≈ 9.47 µM).

Question: And the MIC (M. avium complex; isolate MAC SMT, clarithromycin susceptible)?
Answer: The MIC was 0.125 µg/mL (≈ 0.148 µM).

Question: What about the MIC (M. avium complex; isolate MAC TEL, clarithromycin susceptible) of the same compound?
Answer: The MIC was 8 µg/mL (≈ 9.47 µM).

Question: What about the MIC (M. avium complex; isolate MAC TRY, clarithromycin susceptible) of the same compound?
Answer: Its MIC is 8 µg/mL (≈ 9.47 µM).

Question: And the “outcome in murine malarial infection model” value (P. berghei; mice)?
Answer: Its value is “curative”.

Question: What about the “Activity (%)” value (P. berghei; mice, 1 × 100 mg/kg oral, DMSO) of the same compound?
Answer: The value was 80.05%.

Question: What about the “Survival” value (P. berghei; mice, 1 × 100 mg/kg oral, DMSO) of the same compound?
Answer: Its value is 15.7 days.

Question: What about the “Activity (%)” value (P. berghei; mice, 1 × 100 mg/kg oral, HPMC) of the same compound?
Answer: Its value is 81.45%.

Question: What about the “Survival” value (P. berghei; mice, 1 × 100 mg/kg oral, HPMC) of the same compound?
Answer: The value was 12.7 days.

Question: What about the “Activity (%)” value (P. berghei; mice, 4 × 100 mg/kg oral, DMSO) of the same compound?
Answer: Its value is 99.79%.

Question: What about the “Cure (%)” value (P. berghei; mice, 4 × 100 mg/kg oral, DMSO) of the same compound?
Answer: The value was 100%.

Question: What about the “Survival” value (P. berghei; mice, 4 × 100 mg/kg oral, DMSO, survivors sacrificed on Day 31) of the same compound?
Answer: Its value is 30.0 days.

Question: And the “Activity (%)” value (P. berghei; mice, 4 × 100 mg/kg oral, HPMC)?
Answer: The value was 99.79%.

Question: And the “Cure (%)” value (P. berghei; mice, 4 × 100 mg/kg oral, HPMC)?
Answer: Its value is 100%.

Question: What about the “Survival” value (P. berghei; mice, 4 × 100 mg/kg oral, HPMC, survivors sacrificed on Day 31) of the same compound?
Answer: Its value is 30.0 days.

Question: And the “blood from treated animals parasite free or not” value (P. berghei; mice, 4× 100 mg/kg p.o.)?
Answer: The value was “parasite free”.

Question: What about the “Visual Observation (parasites in blood)” value (P. berghei; mice, 4× 100 mg/kg p.o., DMSO) of the same compound?
Answer: The value was “neg”.

Question: And the “Parasitized RBC in one drop of blood (made by microscope)” value (P. berghei; mice, 4× 100 mg/kg p.o., DMSO)?
Answer: The value was 0.

Question: What about the “Visual Observation (parasites in blood)” value (P. berghei; mice, 4× 100 mg/kg p.o., HPMC) of the same compound?
Answer: The value was “neg”.

Question: What about the “Parasitized RBC in one drop of blood (made by microscope)” value (P. berghei; mice, 4× 100 mg/kg p.o., HPMC) of the same compound?
Answer: Its value is 0.

Question: What about the outcome of treatment (P. berghei; mice, P. berghei strain ANKA, 4×100 mg/kg, cure = survival on Day 30 with no detectable parasites) of the same compound?
Answer: The outcome of treatment was “cure”.

Question: And the “activity compared with Artesunate in the mouse model” value (P. berghei; murine P. berghei model (Vennerstrom et al.))?
Answer: Its value is “equivalent activity to Artesunate”.

Question: And the “minimum active dose for PO route” value (P. berghei blood stages; PO)?
Answer: The value was 80 mg/kg/d×3.

Question: What about the “minimum curative SC dose” value (P. berghei blood stages; SC) of the same compound?
Answer: The value was 40 mg/kg/d×3 days.
